{"source": "paper PMC4931252", "about": "(Nature Communications, 2016)", "target": "T1, prion protein PrP (PrP^C, SHaPrP) (Mesocricetus auratus, UniProt P04273)", "T1 construct": "gene PRNP", "T1 sequence (P04273 90-231 limits assumed)": "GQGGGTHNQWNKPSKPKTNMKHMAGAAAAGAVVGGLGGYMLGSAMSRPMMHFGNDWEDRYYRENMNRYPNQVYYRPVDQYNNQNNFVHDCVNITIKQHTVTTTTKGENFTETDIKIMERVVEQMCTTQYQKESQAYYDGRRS", "format": "binding"}
{"smiles": "C[n+]1ccc(-c2c3nc(c(-c4cc[n+](C)cc4)c4ccc([nH]4)c(-c4cc[n+](C)cc4)c4nc(c(-c5cc[n+](C)cc5)c5ccc2[nH]5)C=C4)C=C3)cc1.[Fe+3]", "note": "[Fe-TMPyP, iron(III) meso-tetra (N-methyl-4-pyridyl-porphine)]", "values": [{"measurement": "Kd", "result": "9 ± 3", "unit": "µM"}]}
